Experimental data published in patent US11400107B2, “Cancer treatments” (NuCana plc, priority 2016, dated 2022).
“Also recorded” adds a separate entry of the source.

Test system: advance progressive cancers refractory to, or relapsed on, all conventional therapies
Assay: ProGem1 dose escalation clinical study of NUC-1031
Type: in vivo, human
Set-up: CA125 level: unit not given here
Excerpt: The following data were generated in clinical studies of NUC-1031 in human patients with advance progressive cancers that are refractory to, or have relapsed on, all conventional therapies that have been used to date. The results clearly illustrate the ability of NUC-1031 to successfully treat refractory cancers.
Although the primary objectives of the dose escalation part of the study were to determine the Recommended Phase II Dose (RP2D) and safety profile, secondary objectives included determining the PK profile, however effective treatment of patients with a range of refractory cancers has also been observed as part of this study.
A total of 68 patients have been entered into this dose escalation study, of which 49 were evaluable for clinical response in that they have received at least 2 Cycles of NUC-1031 and were therefore eligible for a RECIST 1.1 assessment.
NUC-1031 was administered as a 5 to 30 minute intravenous slow bolus injection. • Schedule A: NUC-1031 was administered on days 1, 8, 15 of a 4 weekly Cycle. • Schedule B: NUC-1031 was administered on days 1, 5, 8, 12, 15, 19, of a 4 weekly Cycle. Evaluable Patients [n=49]
Evaluable patients were patients that received ≥2 Cycles of NUC-1031 and were therefore eligible for a RECIST 1.1 assessment at the end of Cycle 2. Where the disease response duration, measured in months, is followed by a “+” this indicates ongoing disease control as of the latest cut-off date.

[1] = Patient 004, breast cancer, 500 mg/m^2 weekly
[2] = Patient 005, ovarian cancer, 500 mg/m^2 weekly
[3] = Patient 006, cholangiocarcinoma, 375 mg/m^2 twice weekly, then 500 mg/m^2
[4] = Patient 007, colorectal cancer, 375 mg/m^2 twice weekly, then 500 mg/m^2 weekly
[5] = Patient 008, cancer of unknown primary, 375 mg/m^2 twice weekly
[6] = Patient 010, endometrial cancer, 750 then 500 mg/m^2 weekly
[7] = Patient 011, uterine carcinosarcoma, 375 mg/m^2 twice weekly
[8] = Patient 011, uterine carcinosarcoma, 375 mg/m^2 twice weekly, then 625 mg/m^2 weekly
[9] = Patient 012, cholangiocarcinoma, 375 mg/m^2 twice weekly, then 625 mg/m^2 weekly
[10] = Patient 013, cervical cancer, 750, 625, then 500 mg/m^2 weekly
[11] = Patient 017, lung cancer, 750 then 625 mg/m^2 weekly
[12] = Patient 018, lung cancer, 625 mg/m^2 weekly
[13] = Patient 021, fallopian tube cancer, 625 mg/m^2 weekly
[14] = Patient 025, mesothelioma, 725 mg/m^2 weekly
[15] = Patient 026, colorectal cancer, 725 mg/m^2 weekly
[16] = Patient 027, ovarian cancer, 725, 675, then 625 mg/m^2 weekly
[17] = Patient 029, breast cancer, 725 mg/m^2 weekly
[18] = Patient 030, ovarian cancer, 725 mg/m^2 weekly
[19] = Patient 032, oesophageal cancer, 750 mg/m^2 weekly
[20] = Patient 033, cholangiocarcinoma, 750 mg/m^2 weekly
[21] = Patient 036, renal carcinoma, 825 then 750 mg/m^2 weekly
[22] = Patient 037, pancreatic cancer, 1,000 then 900 mg/m^2 weekly

Compound: C[C@H](NP(=O)(OC[C@H]1O[C@@H](n2ccc(N)nc2=O)C(F)(F)[C@@H]1O)Oc1ccccc1)C(=O)OCc1ccccc1 (stereo partly drawn) [NUC-1031, 2′-deoxy-2′,2′-difluoro-D-cytidine-5′-O-[phenyl (benzoxy-L-alaninyl)] phosphate]
- Best response to RECIST [1]: Stable Disease
- Duration of response to RECIST [1]: 12 months
- Best response to RECIST [2]: Stable Disease
- Duration of response to RECIST [2]: 15 months
- CA125 level (Patient 005, ovarian cancer, end of Cycle 6 (208 at start of study)): 140
- Best response to RECIST [3]: Stable Disease
- Duration of response to RECIST [3]: 3 months
- CA19.9 level (Patient 006, cholangiocarcinoma, after two doses (from 125,002)): 59,285
- Adverse events (grade) [4]: thrombocytopaenia (G3)
- Best response to RECIST [4]: Stable Disease
- Duration of response to RECIST [4]: 3 months
- CEA level (Patient 007, colorectal cancer, after treatment (from 361)): 286
- CA19.9 level (Patient 007, colorectal cancer, after treatment (from 3,151)): 2,957
- Adverse events (grade) [5]: transient (G3) transaminitis (ALT and AST)
- Best response to RECIST [5]: Stable Disease
- Duration of response to RECIST [5]: 3 months
- Adverse events (grade) [6]: neutropenia (G3); also recorded: transient Grade 3 anaemia
- Best response to RECIST [6]: Stable Disease
- Duration of response to RECIST [6]: 9 months
- CA125 level (Patient 010, endometrial cancer, after treatment (from 727)): 488
- Adverse events (grade) [7]: transient neutropaenia (G3); also recorded: low haemoglobin (G2)
- Reduction in tumour volume [7]: 26%
- Best response to RECIST [8]: Stable Disease
- Duration of response to RECIST [8]: 4 months
- Best response to RECIST [9]: Stable Disease
- Duration of response to RECIST [9]: 8 months
- Best response to RECIST [10]: Partial Response
- Duration of response to RECIST [10]: 9 months
- PFS [10]: 11 months
- Best response to RECIST (Patient 014, mesothelioma, 750 then 625 mg/m^2 weekly): Progressive Disease
- Best response to RECIST (Patient 015, cancer (unknown primary), 750, 625, then 500 mg/m^2 weekly): Partial Response
- Reduction in tumour size (Patient 015, cancer (unknown primary), CT scan on 9 Jan. 2015): approximately 58%
- Adverse events (grade) (Patient 015, cancer (unknown primary), Cycle 1 Day 8): thrombocytopenia (G3); also recorded: lymphopenia (G3); also recorded: neutropenia (G2)
- PFS (Patient 015, cancer (unknown primary), ongoing): ≥ 24 months
- Duration of response to RECIST (Patient 015, cancer (unknown primary), ongoing, 750, 625, then 500 mg/m^2 weekly): ≥ 20 months
- Best response to RECIST [11]: Partial Response
- Duration of response to RECIST [11]: 3 Months
- PFS [11]: 10 Months
- Best response to RECIST [12]: Stable Disease
- Duration of response to RECIST [12]: 4 months
- Best overall response [13]: Partial Response
- Duration of Partial Response according to GCIG criteria [13]: 9 months
- Duration of Partial Response according to RECIST [13]: 3 months
- CA125 reduction from baseline (Patient 021, fallopian tube cancer, baseline to end of Cycle 6): 91%
- CA125 level (Patient 021, fallopian tube cancer, end of Cycle 6 (baseline 372)): 35
- Best response to RECIST (Patient 024, cancer of unknown primary, 675 mg/m^2 weekly): Progressive Disease
- Best response to RECIST [14]: Stable Disease
- Duration of response to RECIST [14]: 4 months
- Best response to RECIST [15]: Stable Disease
- Duration of response to RECIST [15]: 4 months
- Adverse events (grade) (Patient 027, ovarian cancer, 725 mg/m^2, following Cycle 1 Day 1, a DLT): elevated ALT (G3)
- Best response to RECIST [16]: Stable Disease
- Duration of response to RECIST [16]: 8 months
- Reduction in tumour volume [16]: 23%
- ALT level (Patient 027, ovarian cancer, day 7 after Cycle 1 Day 1 at 725 mg/m^2 (96 at baseline)): 256 U/L
- CA125 level (Patient 027, ovarian cancer, end of Cycle 6 (188 at baseline)): 99
- Best response to RECIST [17]: Stable Disease
- Duration of response to RECIST [17]: 4 months
- Best response to RECIST [18]: Stable Disease
- Duration of response to RECIST [18]: 3 months
- Best response to RECIST (Patient 031, cholangiocarcinoma, 750 mg/m^2 weekly, end of Cycle 2 CT scan): Progressive Disease
- Best response to RECIST [19]: Stable Disease
- Duration of response to RECIST [19]: 2 months
- Best response to RECIST [20]: Stable Disease
- Duration of response to RECIST [20]: 3 months
- Adverse events (grade) (Patient 036, renal carcinoma, 825 mg/m^2, following Cycle 5 Day 1): thrombocytopenia (G3)
- Best response to RECIST [21]: Stable Disease
- Duration of response to RECIST [21]: 5 months
- Reduction in tumour volume (Patient 036, renal carcinoma, end of Cycle 4 CT scan): 7%
- Best response to RECIST [22]: Partial Response
- Duration of response to RECIST [22]: 1 month
- PFS [22]: 4 months
- Reduction in tumour volume (Patient 037, pancreatic cancer, CT scan on 29 Apr. 2014): 30%
- CEA level (Patient 037, pancreatic cancer, after treatment (536 at baseline)): 42
- CA19.9 level (Patient 037, pancreatic cancer, after treatment (15,000 at baseline)): 4,000
- Reduction in tumour volume (Patient 037, pancreatic cancer, end of Cycle 2 CT scan): 18.4%
- Best response to RECIST (Patient 038, ovarian cancer, 900 mg/m^2 weekly): Progressive Disease
- Increase in tumour volume (Patient 038, ovarian cancer, end of Cycle 2 scan): 25%
